Assay results as given in ChEMBL document CHEMBL5252628, “Novel xanthone antibacterials: Semi-synthesis, biological evaluation, and the action mechanisms” (Bioorg Med Chem, 2023).
In brackets after ≈: the same amount, converted by molar mass. Activity calls are given as the source filed them. The calls are words filed in the database; no cut-off is given here.

Tests used:
Staphylococcus aureus [1] = assay: Induction of drug resistance in Staphylococcus aureus ATCC 29213 assessed as fold increase in MIC measured after 20 passage; format: functional
Staphylococcus aureus [2] = assay: Antibacterial activity against methicillin-resistant Staphylococcus aureus 2 assessed as inhibition of bacterial growth incubated for 18 to 24 hrs by broth microdilution assay; format: functional; conditions: time 18-24 hrs
A549 = assay: Cytotoxicity against human A549 cells assessed as reduction in cell viability at 25 ug/ml incubated for 72 hrs by CCK-8 assay; format: toxicity, cell-based; conditions: a549, 72 h, dose 25 µg/ml
Staphylococcus aureus [3] = assay: Antibacterial activity against Staphylococcus aureus ATCC 29213 assessed as inhibition of bacterial growth incubated for 18 to 24 hrs by broth microdilution assay; format: functional; conditions: time 18-24 hrs
Staphylococcus aureus [4] = assay: Antibacterial activity against methicillin-resistant Staphylococcus aureus 2 assessed as separation of plasma wall at 5 x MIC incubated for 2 hrs by transmission electron microscopy analysis; format: functional, organism-based
Staphylococcus aureus [5] = assay: Antibacterial activity against methicillin-resistant Staphylococcus aureus 2 assessed as appearance of circular vesicles at 5 x MIC incubated for 2 hrs by transmission electron microscopy analysis; format: functional, organism-based
Escherichia coli = assay: Antibacterial activity against Escherichia coli ATCC 25922 assessed as inhibition of bacterial growth incubated for 18 to 24 hrs by broth microdilution assay; format: functional; conditions: time 18-24 hrs
Staphylococcus aureus [6] = assay: Inhibition of biofilm formation in Staphylococcus aureus ATCC 29213 at 4 to 16 microg/ml incubated for 18 to 24 hrs by crystal violet staining based assay; format: functional, organism-based; conditions: dose 4-16 µg/ml, time 18-24 hrs
Staphylococcus aureus [7] = assay: Antibacterial activity against Staphylococcus aureus ATCC 29213 assessed as separation of plasma wall at 5 x MIC incubated for 2 hrs by transmission electron microscopy analysis; format: functional, organism-based
Staphylococcus aureus [8] = assay: Antibacterial activity against methicillin-resistant Staphylococcus aureus 2 assessed as blurred space in cytoplasm and cell wall at 5 x MIC incubated for 2 hrs by transmission electron microscopy analysis; format: functional, organism-based
Cell membrane [9] = assay: Induction of membrane depolarization in methicillin-resistant Staphylococcus aureus 2 at 5 x MIC incubated for 2 hrs by DiOC23 dye based based flow cytometry; format: subcellular
Staphylococcus aureus [10] = assay: Bactericidal activity against Staphylococcus aureus ATCC 29213 assessed as reduction in colony forming unit at 1 to 8 times MIC incubated for 18 to 24 hrs by time kill assay; format: functional, organism-based; conditions: time 18-24 hrs
Staphylococcus aureus [11] = assay: Antibacterial activity against Staphylococcus aureus ATCC 29213 assessed as cell wall loosening at 5 x MIC incubated for 2 hrs by transmission electron microscopy analysis; format: functional, organism-based
Staphylococcus aureus [12] = assay: Bactericidal activity against methicillin-resistant Staphylococcus aureus 2 assessed as reduction in colony forming unit at 1 to 8 times MIC incubated for 18 to 24 hrs by time kill assay; format: functional, organism-based; conditions: time 18-24 hrs
Cell membrane [13] = assay: Induction of cell membrane permeability in Staphylococcus aureus ATCC 29213 at 5 x MIC incubated for 2 hrs by TO-PRO-3 reagent flow cytometry assay; format: subcellular
Staphylococcus aureus [14] = assay: Antibacterial activity against Staphylococcus aureus ATCC 29213 assessed as appearance of circular vesicles at 5 x MIC incubated for 2 hrs by transmission electron microscopy analysis; format: functional, organism-based
Staphylococcus aureus [15] = assay: Antibacterial activity against Staphylococcus aureus ATCC 33591 assessed as inhibition of bacterial growth incubated for 18 to 24 hrs by broth microdilution assay; format: functional; conditions: time 18-24 hrs
[16] = Hemolytic activity in rabbit RBC assessed as hemolysis incubated for 1 hr by microtiter plate method; format: toxicity, cell-based, Oryctolagus cuniculus, Erythrocyte; conditions: red blood cells
Cell membrane [17] = assay: Induction of cell membrane permeability in methicillin-resistant Staphylococcus aureus 2 at 5 x MIC incubated for 2 hrs by TO-PRO-3 reagent flow cytometry assay; format: subcellular
L02 = assay: Cytotoxicity against human L02 cells assessed as reduction in cell viability at 25 ug/ml incubated for 72 hrs by CCK-8 assay; format: toxicity, cell-based; conditions: l02, 72 h, dose 25 µg/ml
Staphylococcus aureus [18] = assay: Antibacterial activity against Staphylococcus aureus ATCC 43300 assessed as inhibition of bacterial growth incubated for 18 to 24 hrs by broth microdilution assay; format: functional; conditions: time 18-24 hrs
Staphylococcus aureus [19] = assay: Antibacterial activity against Staphylococcus aureus ATCC 29213 assessed as blurred space in cytoplasm and cell wall at 5 x MIC incubated for 2 hrs by transmission electron microscopy analysis; format: functional, organism-based
Staphylococcus aureus [20] = assay: Antibacterial activity against methicillin-resistant Staphylococcus aureus 2 assessed as cell wall loosening at 5 x MIC incubated for 2 hrs by transmission electron microscopy analysis; format: functional, organism-based
Staphylococcus aureus [21] = assay: Inhibition of biofilm formation in methicillin-resistant Staphylococcus aureus 2 at 4 to 16 microg/ml incubated for 18 to 24 hrs by crystal violet staining based assay; format: functional, organism-based; conditions: dose 4-16 µg/ml, time 18-24 hrs
Salmonella enteritidis = assay: Antibacterial activity against Salmonella enteritidis SM012 assessed as inhibition of bacterial growth incubated for 18 to 24 hrs by broth microdilution assay; format: functional, Salmonella enterica subsp. enterica serovar Enteritidis; conditions: Salmonella enterica, time 18-24 hrs
Cell membrane [22] = assay: Induction of membrane depolarization in Staphylococcus aureus ATCC 29213 at 5 x MIC incubated for 2 hrs by DiOC23 dye based based flow cytometry; format: subcellular
Staphylococcus aureus [23] = assay: Antibacterial activity against Staphylococcus aureus SH-27 assessed as inhibition of bacterial growth incubated for 18 to 24 hrs by broth microdilution assay; format: functional; conditions: time 18-24 hrs
Staphylococcus aureus [24] = assay: Antibacterial activity Staphylococcus aureus ATCC 29213 infected BALB/c mouse assessed as decrease in degree of lesion at 50 to 100 mg/kg,iv measured on day 1 and 3 after infection by hematoxylin and eosin staining based assay; format: functional, organism-based; conditions: dose 50-100 mg/kg
Staphylococcus aureus [25] = assay: Antibacterial activity Staphylococcus aureus ATCC 29213 infected BALB/c mouse assessed as TNF-alpha cytokine level at 50 to 100 mg/kg,iv measured on day 1 and 3 after infection; format: functional, organism-based; conditions: dose 50-100 mg/kg
Staphylococcus aureus [26] = assay: Inhibition of biofilm formation in methicillin-resistant Staphylococcus aureus 2 at 1 times MIC incubated for 18 to 24 hrs by crystal violet staining based assay; format: functional; conditions: time 18-24 hrs
Staphylococcus aureus [27] = assay: Bactericidal activity against Staphylococcus aureus ATCC 29213 assessed as reduction in colony forming unit at 4 times MIC measured after 4 hrs by time kill assay; format: functional
Cell membrane [28] = assay: Induction of cell membrane disruption in methicillin-resistant Staphylococcus aureus 2 assessed as increase in protein leakage at 5 x MIC incubated for 2 hrs by coomassie brilliant blue dye assay; format: subcellular
Staphylococcus aureus [29] = assay: Antibacterial activity Staphylococcus aureus ATCC 29213 infected BALB/c mouse assessed as increase in skin thickness at 50 to 100 mg/kg,iv measured on day 1 and 3 after infection by hematoxylin and eosin staining based assay; format: functional, organism-based; conditions: dose 50-100 mg/kg
Staphylococcus aureus [30] = assay: Antibacterial activity Staphylococcus aureus ATCC 29213 infected BALB/c mouse assessed as decrease in volume of skin abscess at 50 to 100 mg/kg,iv measured on day 1 and 3 after infection; format: functional, organism-based; conditions: dose 50-100 mg/kg
Staphylococcus aureus [31] = assay: Antibacterial activity Staphylococcus aureus ATCC 29213 infected BALB/c mouse assessed as reduction in bacterial burden at 50 to 100 mg/kg,iv measured on day 1 and 3 after infection; format: functional, organism-based; conditions: dose 50-100 mg/kg
[32] = Cytotoxicity against human L02 cells assessed as reduction in cell viability incubated for 72 hrs by CCK-8 assay; format: toxicity, cell-based
Cell membrane [33] = assay: Disruption of membrane integrity in Staphylococcus aureus ATCC 29213 assessed as cell membrane damage at 5 x MIC incubated for 2 hrs by propidium iodide staining based assay; format: subcellular
Staphylococcus aureus [34] = assay: Bactericidal activity against methicillin-resistant Staphylococcus aureus 2 assessed as reduction in colony forming unit at 4 times MIC measured after 4 hrs by time kill assay; format: functional
Cell membrane [35] = assay: Induction of cell membrane disruption in Staphylococcus aureus ATCC 29213 assessed as increase in protein leakage at 5 x MIC incubated for 2 hrs by coomassie brilliant blue dye assay; format: subcellular
Cell membrane [36] = assay: Disruption of membrane integrity in Staphylococcus aureus ATCC 29213 assessed as cell membrane damage at 5 x MIC incubated for 2 hrs by DAPI staining based assay
Staphylococcus aureus [37] = assay: Inhibition of biofilm formation in Staphylococcus aureus ATCC 29213 at 1 times MIC incubated for 18 to 24 hrs by crystal violet staining based assay; format: functional; conditions: time 18-24 hrs
Cell membrane [38] = assay: Induction of cell membrane disruption in Staphylococcus aureus ATCC 29213 assessed as increase in intracellular vanomycin content at 10 x MIC incubated for 2 hrs by UPLC analysis
Staphylococcus aureus [39] = assay: Antibacterial activity Staphylococcus aureus ATCC 29213 infected BALB/c mouse assessed as IL-1beta cytokine level at 50 to 100 mg/kg,iv measured on day 1 and 3 after infection; format: functional, organism-based; conditions: dose 50-100 mg/kg

## Cc1onc(-c2ccccc2)c1C(=O)N[C@@H]1C(=O)N2[C@@H]1SC(C)(C)[C@@H]2C(=O)O [OXACILLIN]
Staphylococcus aureus [1]
  fold change (FC): 64

## COc1c(O)cc2oc3cc(O)c(CC=C(C)C)c(O)c3c(=O)c2c1CC=C(C)C [MANGOSTIN]
Staphylococcus aureus [2]
  MIC: 2 µg/mL (≈ 4.87 µM)
A549
  Activity: Non-Toxic
Staphylococcus aureus [3]
  MIC: 2 µg/mL (≈ 4.87 µM)
Staphylococcus aureus [4]
  Activity: Active
Staphylococcus aureus [5]
  Activity: Active
Escherichia coli
  MIC: > 256 µg/mL
Staphylococcus aureus [6]
  inhibition: Dose-Dependent Effect
Staphylococcus aureus [7]
  Activity: Active
Staphylococcus aureus [8]
  Activity: Active
Cell membrane [9]
  Activity: Active
Staphylococcus aureus [10]
  Activity: Active
Staphylococcus aureus [11]
  Activity: Active
Staphylococcus aureus [12]
  Activity: Active
Cell membrane [13]
  Activity: 100%
Staphylococcus aureus [14]
  Activity: Active
Staphylococcus aureus [15]
  MIC: 1 µg/mL (≈ 2.44 µM)
[16]
  HC50 at 1 h: 26.2 µg/mL
Cell membrane [17]
  Activity: 100%
L02
  Activity: Non-Toxic
Staphylococcus aureus [18]
  MIC: 1 µg/mL (≈ 2.44 µM)
Staphylococcus aureus [19]
  Activity: Active
Staphylococcus aureus [20]
  Activity: Active
Staphylococcus aureus [21]
  inhibition: Dose-Dependent Effect
Salmonella enteritidis
  MIC: > 256 µg/mL
Cell membrane [22]
  Activity: Active
Staphylococcus aureus [23]
  MIC: 2 µg/mL (≈ 4.87 µM)

## COc1c(O)cc2oc3cc(O)c(CC=C(C)C)c(OC(C)=O)c3c(=O)c2c1CC=C(C)C
Staphylococcus aureus [2]
  MIC: 4 µg/mL (≈ 8.84 µM)
A549
  Activity: Non-Toxic
Staphylococcus aureus [3]
  MIC: 4 µg/mL (≈ 8.84 µM)
Staphylococcus aureus [4]
  Activity: Active
Staphylococcus aureus [5]
  Activity: Active
Escherichia coli
  MIC: > 256 µg/mL
Staphylococcus aureus [6]
  inhibition: Dose-Dependent Effect
Staphylococcus aureus [7]
  Activity: Active
Staphylococcus aureus [24]
  Activity: Active
Staphylococcus aureus [25]
  Activity: Active
Staphylococcus aureus [8]
  Activity: Active
Cell membrane [9]
  Activity: Active
Staphylococcus aureus [10]
  Activity: Active
Staphylococcus aureus [1]
  Activity: inactive
Staphylococcus aureus [26]
  inhibition (INH): 98%
Staphylococcus aureus [11]
  Activity: Active
Staphylococcus aureus [12]
  Activity: Active
Staphylococcus aureus [27]
  Activity: 4.57 log10CFU
Cell membrane [28]
  Activity: Active
Staphylococcus aureus [29]
  Activity: Active
Cell membrane [13]
  Activity: 100%
Staphylococcus aureus [14]
  Activity: Active
Staphylococcus aureus [30]
  Activity: Dose-Dependent Effect
Staphylococcus aureus [15]
  MIC: 1 µg/mL (≈ 2.21 µM)
[16]
  HC50 at 1 h: 6.3 µg/mL
Cell membrane [17]
  Activity: 100%
Staphylococcus aureus [31]
  Activity: Active
[32]
  IC50 at 72 h: 22.1 µg/mL (≈ 48.8 µM)
Staphylococcus aureus [18]
  MIC: 1 µg/mL (≈ 2.21 µM)
Cell membrane [33]
  Activity: Active
Staphylococcus aureus [19]
  Activity: Active
Staphylococcus aureus [20]
  Activity: Active
Staphylococcus aureus [34]
  Activity: 3.72 log10CFU
Cell membrane [35]
  Activity: Active
Cell membrane [36]
  Activity: Active
Staphylococcus aureus [21]
  inhibition: Dose-Dependent Effect
Salmonella enteritidis
  MIC: > 256 µg/mL
Staphylococcus aureus [37]
  inhibition (INH): 90%
Cell membrane [22]
  Activity: Active
Cell membrane [38]
  Activity: Active
Staphylococcus aureus [23]
  MIC: 2 µg/mL (≈ 4.42 µM)
Staphylococcus aureus [39]
  Activity: Active
